This is an account of results in patent US20220396565A1 (Hoffmann-La Roche Inc., priority 2020, published 2022).

Structures can show the parent of a compound that is named as a salt.

In one assay the test system is Acinetobacter baumannii ATCC17961. In words: Antimicrobial susceptibility testing: 90% growth inhibitory concentration (IC90) determination, Iso-Sensitest broth. It counts as cell-based. The following applies: Acinetobacter baumannii, ATCC17961, 90% growth inhibitory concentration, Acinetobacter baumannii ATCC17961, Iso-Sensitest broth; read-out: ATCC 17961 IC90. The procedure, abridged:
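Growth at OD600 was monitored every 20 min for 16 h at 35±2 °C, with bacteria inoculated at ~5×10^(5) CFU/ml into Iso-Sensitest medium. Compounds were tested as 10-point twofold dilutions (e.g. 10–0.02 μM final). The 90% inhibitory concentration comes from the log-phase growth.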
The term IC90 denotes the concentration needed for an effect of 90%. On to `COc1ccc(-c2cnc(C(=O)Nc3ccc(C(=O)N4C[C@@H]5CN(C(=O)[C@@H]6CCNC6)C[C@@H]5C4)c(Cl)c3)n2C)c(F)c1F` [Example 188, N-[4-[(3aR,6aS)-5-[(3R)-pyrrolidine-3-carbonyl]-1,3,3a,4,6,6a-hexahydropyrrolo[3,4-c]pyrrole-2-carbonyl]-3-chloro-phenyl]-5-(2,3-difluoro-4-methoxy-phenyl)-1-methyl-imidazole-2-carboxamide formate], for which the concentration for an effect of 90% (IC90) came out at 140 nM. Still for that read-out and setting: with `COc1ccc(-c2cnc(C(=O)Nc3ccc(C(=O)N4CC(NC(=O)CN(C)C)C4)c(Cl)c3)n2C)c(F)c1F` [Example 189, N-[3-chloro-4-[3-[[2-(dimethylamino)acetyl]amino]azetidine-1-carbonyl]phenyl]-5-(2,3-difluoro-4-methoxy-phenyl)-1-methyl-imidazole-2-carboxamide formate] the figure was 140 nM; with `COc1ccc(-c2cnc(C(=O)Nc3ccc(C(=O)N4C[C@H]5CN(C(=O)CN(C)C)C[C@H]5C4)c(Cl)c3)n2C)c(F)c1F` [Example 190, N-[4-[(3aS,6aR)-2-[2-(dimethylamino)acetyl]-1,3,3a,4,6,6a-hexahydropyrrolo[3,4-c]pyrrole-5-carbonyl]-3-chloro-phenyl]-5-(2,3-difluoro-4-methoxy-phenyl)-1-methyl-imidazole-2-carboxamide formate], 180 nM. The same measure, in the same setting: then `Cn1c(-c2ccc(F)c(F)c2F)cnc1C(=O)Nc1ccc(C(=O)N2CCN(C(=O)C3CCNCC3)CC2)c(Cl)c1` [Example 191, N-[3-chloro-4-[4-(piperidine-4-carbonyl)piperazine-1-carbonyl]phenyl]-1-methyl-5-(2,3,4-trifluorophenyl)imidazole-2-carboxamide formate], with 230 nM; and `COc1ccc(-c2cnc(C(=O)Nc3ccc(C(=O)N4CCN(C(=O)C5CCNCC5)CC4)c(Cl)c3)n2C)cc1C#N` [Example 192, N-[3-chloro-4-[4-(piperidine-4-carbonyl)piperazine-1-carbonyl]phenyl]-5-(3-cyano-4-methoxy-phenyl)-1-methyl-imidazole-2-carboxamide formate], with 460 nM. Still for that read-out and setting: then `Cn1c(-c2ccc(F)c(C#N)c2F)cnc1C(=O)Nc1ccc(C(=O)N2CCN(C(=O)C3CCNCC3)CC2)c(Cl)c1` [Example 193, N-[3-chloro-4-[4-(piperidine-4-carbonyl)piperazine-1-carbonyl]phenyl]-5-(3-cyano-2,4-difluoro-phenyl)-1-methyl-imidazole-2-carboxamide formate], with 2590 nM; and `COc1ccc(-c2cnc(C(=O)Nc3ccc(C(=O)N4CCN(C(=O)C[C@@H]5CCNC5)CC4)c(Cl)c3)n2C)c(F)c1F` [Example 194, N-[3-chloro-4-[4-[2-[(3S)-pyrrolidin-3-yl]acetyl]piperazine-1-carbonyl]phenyl]-5-(2,3-difluoro-4-methoxy-phenyl)-1-methyl-imidazole-2-carboxamide formate], with 50 nM; and `COc1ccc(-c2cnc(C(=O)Nc3ccc(C(=O)N4CCC(NC(=O)CN(C)C)CC4)c(Cl)c3)n2C)c(F)c1F` [Example 195, N-[3-chloro-4-[4-[[2-(dimethylamino)acetyl]amino]piperidine-1-carbonyl]phenyl]-5-(2,3-difluoro-4-methoxy-phenyl)-1-methyl-imidazole-2-carboxamide], with 90 nM. As for `Cn1c(-c2ccc(OCC#N)c(F)c2F)cnc1C(=O)Nc1ccc(C(=O)N2CCN(C(=O)[C@@H]3C[C@H](N)CN3)CC2)c(Cl)c1` [Example 209, N-(4-(4-((2S,4S)-4-aminopyrrolidine-2-carbonyl)piperazine-1-carbonyl)-3-chlorophenyl)-5-(4-(cyanomethoxy)-2,3-difluorophenyl)-1-methyl 1H-imidazole-2-carboxamide], the IC90 came out at 80 nM. Same read-out and setting: with `Cn1c(-c2ccc(OCC#N)c(F)c2F)cnc1C(=O)Nc1ccc(C(=O)N2CCN(C(=O)[C@@H]3NCC[C@@H]3O)CC2)c(Cl)c1` [Example 210, N-(3-chloro-4-(4-((2R,3S)-3-hydroxypyrrolidine-2-carbonyl)piperazine-1-carbonyl)phenyl)-5-(4-(cyanomethoxy)-2,3-difluorophenyl)-1-methyl-1H-imidazole-2-carboxamide formate] the figure was 60 nM; with `Cn1c(-c2ccc(OCC#N)c(F)c2F)cnc1C(=O)Nc1ccc(C(=O)N2CCN(C(=O)CN3CC(C(=O)O)C3)CC2)c(Cl)c1` [Example 212, 1-(2-(4-(2-chloro-4-(5-(4-(cyanomethoxy)-2,3-difluorophenyl)-1-methyl-1H-imidazole-2-carboxamido)benzoyl)piperazin-1-yl)-2-oxoethyl)azetidine-3-carboxylic acid 2,2,2-trifluoroacetate], 850 nM; with `Cn1c(-c2ccc(OCC#N)c(F)c2F)cnc1C(=O)Nc1ccc(C(=O)N2CCN(CCNC(=O)[C@H]3CCCN3)CC2)c(Cl)c1` [Example 213, (R)-N-(3-chloro-4-(4-(2-(pyrrolidine-2-carboxamido)ethyl)piperazine-1-carbonyl)phenyl)-5-(4-(cyanomethoxy)-2,3-difluorophenyl)-1-methyl-1H-imidazole-2-carboxamide 2,2,2-trifluoroacetate], 100 nM. For the compound `Cn1c(-c2ccc(OCC#N)c(F)c2F)cnc1C(=O)Nc1ccc(C(=O)N2CCN(C(=O)C3CNCC(O)C3)CC2)c(Cl)c1` (centres unmarked) [Example 214, N-(3-chloro-4-(4-(5-hydroxypiperidine-3-carbonyl)piperazine-1-carbonyl)phenyl)-5-(4-(cyanomethoxy)-2,3-difluorophenyl)-1-methyl-1H-imidazole-2-carboxamide 2,2,2-trifluoroacetate], the IC90 was 70 nM. Regarding `Cn1c(-c2ccc(OCC#N)c(F)c2F)cnc1C(=O)Nc1ccc(C(=O)N2CCN(C(=O)CN3CC[C@@H](C(=O)O)C3)CC2)c(Cl)c1` [Example 215, (R)-1-(2-(4-(2-chloro-4-(5-(4-(cyanomethoxy)-2,3-difluorophenyl)-1-methyl-1H-imidazole-2-carboxamido)benzoyl)piperazin-1-yl)-2-oxoethyl)pyrrolidine-3-carboxylic acid 2,2,2-trifluoroacetic acid], the 90% effect concentration (IC90) was 800 nM. Same read-out and setting: with `COc1ccc(-c2cnc(C(=O)Nc3ccc(C(=O)N4CCN(S(=O)(=O)C5CCNCC5)CC4)c(Cl)c3)n2C)c(F)c1F` [Example 216, N-(3-chloro-4-(4-(piperidin-4-ylsulfonyl)piperazine-1-carbonyl)phenyl)-5-(2,3-difluoro-4-methoxyphenyl)-1-methyl-1H-imidazole-2-carboxamide formate] the figure was 120 nM. For `COc1ccc(-c2cnc(C(=O)Nc3ccc(C(=O)N4CC(NC(=O)CN)C4)c(Cl)c3)n2C)c(F)c1F` [Example 217, N-(4-(3-(2-aminoacetamido)azetidine-1-carbonyl)-3-chlorophenyl)-5-(2,3-difluoro-4-methoxyphenyl)-1-methyl-1H-imidazole-2-carboxamide formate], the IC90 is 90 nM.

With `COc1ccc(-c2cnc(C(=O)Nc3ccc(C(=O)N4CC(NC(=O)C5CC(CN)C5)C4)c(Cl)c3)n2C)c(F)c1F` (centres unmarked) [Example 218, N-(4-(3-(3-(aminomethyl)cyclobutane-1-carboxamido)azetidine-1-carbonyl)-3-chlorophenyl)-5-(2,3-difluoro-4-methoxyphenyl)-1-methyl-1H-imidazole-2-carboxamide 2,2,2-trifluoroacetate], the concentration for an effect of 90% (IC90) turned out to be 90 nM. Turning to `COc1ccc(-c2cnc(C(=O)Nc3ccc(C(=O)N4CCN(C(=O)C5CC(O)C5)CC4)c(Cl)c3)n2C)c(F)c1F` (centres unmarked) [Example 219, N-(3-chloro-4-(4-(3-hydroxycyclobutane-1-carbonyl)piperazine-1-carbonyl)phenyl)-5-(2,3-difluoro-4-methoxyphenyl)-1-methyl-1H-imidazole-2-carboxamide], the IC90 was determined as 110 nM.

As for `CN(C)CC(=O)N1CCN(C(=O)c2ccc(NC(=O)c3ncc(-c4ccc(OCF)c(F)c4F)n3C)cc2Cl)CC1` [Example 220, N-(3-chloro-4-(4-(dimethylglycyl)piperazine-1-carbonyl)phenyl)-5-(2,3-difluoro-4-(fluoromethoxy)phenyl)-1-methyl-1H-imidazole-2-carboxamide formate], the IC90 stood at 40 nM.

Take `Cn1c(-c2ccc(OCF)c(F)c2F)cnc1C(=O)Nc1ccc(C(=O)N2CCN(C(=O)[C@@H]3C[C@@H](O)CN3)CC2)c(Cl)c1` [Example 221, N-(3-chloro-4-(4-((2S,4R)-4-hydroxypyrrolidine-2-carbonyl)piperazine-1-carbonyl)phenyl)-5-(2,3-difluoro-4-(fluoromethoxy)phenyl)-1-methyl-1H-imidazole-2-carboxamide formate]: the IC90 was determined as 50 nM. For the compound `CN(C)CC(=O)N1CCN(C(=O)c2ccc(NC(=O)c3ncc(-c4ccc(OCF)cc4F)n3C)cc2Cl)CC1` [Example 222, N-(3-chloro-4-(4-(dimethylglycyl)piperazine-1-carbonyl)phenyl)-5-(2-fluoro-4-(fluoromethoxy)phenyl)-1-methyl-1H-imidazole-2-carboxamide], the IC90 worked out at 90 nM.

The same assay, now with this note: Acinetobacter baumannii, ATCC17961, read-out: ATCC 17961 IC90.
Turning to `Cn1c(-c2ccc(OCC#N)c(F)c2F)cnc1C(=O)Nc1ccc(C(=O)N2CCN(C(=O)[C@H]3CCCNC3)CC2)c(Cl)c1` [Example 208, (S)-N-(3-chloro-4-(4-(piperidine-3-carbonyl)piperazine-1-carbonyl)phenyl)-5-(4-(cyanomethoxy)-2,3-difluorophenyl)-1-methyl 1H-imidazole-2-carboxamide 2,2,2-trifluoroacetate], the IC90 came out at 50 nM.

Take `Cn1c(-c2ccc(OCC#N)c(F)c2F)cnc1C(=O)Nc1ccc(C(=O)N2CCN(C(=O)[C@@H]3CCCCN3)CC2)c(Cl)c1` [Example 211, (S)-N-(3-chloro-4-(4-(piperidine-2-carbonyl)piperazine-1-carbonyl)phenyl)-5-(4-(cyanomethoxy)-2,3-difluorophenyl)-1-methyl 1H-imidazole-2-carboxamide formate]: the concentration for an effect of 90% (IC90) was 50 nM.
